Test results published in patent publication US11530244B2, “Cyclic polypeptides for PCSK9 inhibition” (priority 2018, dated 2022).
Starred links: 1 amine or outer side, 2 acyl side, 3 side chain; linkers in the order of their positions; H or OH if unused. Positions of bridges follow the written chain, without caps; N, C: chain ends. Non-standard residues stand in square brackets, D forms with d. Residues, ends and D or L forms follow the SMILES beside them. Groups on a side chain read outwards from the residue. *: point of attachment. Phe(3-CH2NH2) = O=C([C@H](Cc1cccc(CN[*:3])c1)N[*:1])[*:2]; PEG12 = NCCOCCOCCOCCOCCOCCOCCOCCOCCOCCOCCOCCOCCC(=O)O; X1 = O=C1CC[C@@H](C(=O)[*:1])N1CCCSCc1cccc(C[*:2])c1; NHCH2C6H4(p)CH2CH2NH = c1cc(CN[*:1])ccc1CCN[*:2]; Trp(5-F) = N[C@@H](Cc1c[nH]c2ccc(F)cc12)C(=O)O; Phe(4-CH2NH2) = NCc1ccc(C[C@H](N)C(=O)O)cc1; Heptanedioyl = O=C(CCCCCC(=O)[*:2])[*:1]; Pro(cis-4-F) = O=C(O)[C@@H]1C[C@H](F)CN1; γGlu = O=C(O)[C@H](CCC(=O)[*:2])N[*:1]; mXylylene = c1cc(C[*:1])cc(C[*:2])c1; AEF = NCCOc1ccc(C[C@H](N)C(=O)O)cc1; Adipoyl = O=C(CCCCC(=O)[*:2])[*:1]; Glutaryl = O=C(CCCC(=O)[*:2])[*:1]; Palmitoyl = CCCCCCCCCCCCCCCC(=O)*; αMeP = C[C@@]1(C(=O)O)CCCN1; AEEEA = NCCOCCOCCOCC(=O)O; PEG2 = NCCOCCOCCC(=O)O; AEEA = NCCOCCOCC(=O)O; Piv = CC(C)(C)C(=O)*; X28 = CC(C)(F)C(=O)*; Mpa = O=C(O)CCS

Tests used:
PCSK9 [1] = biological target: T1, PCSK9 (Homo sapiens (Human), UniProt Q8NBP7); assay: PCSK9 Alexa FRET Plus assay (displacement of AlexaFluor647 tagged cyclic peptide Reagent B); assay type: binding; details: Alexa FRET Plus, 0.5 nM PCSK9, 960 nM AF cyclic peptide Reagent B; read-out: IC50
Summary of the method: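 TR-FRET displacement with final 0.5 nM biotinylated PCSK9, 1.25 nM Strep-Eu and 960 nM AlexaFluor-tagged cyclic peptide in HEPES pH 7.4, NaCl, CaCl2, BSA, P20; ≥2 h at room temperature. IC50 from sigmoidal fit, converted to Ki using peptide KD. Falling europium counts flagged false positives.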

PCSK9 [2] = biological target: T1, PCSK9; assay: PCSK9 Alexa FRET Standard assay (displacement of AlexaFluor647 tagged cyclic peptide Reagent A); assay type: binding; details: PCSK9 Alexa FRET Standard assay, 0.5 nM PCSK9, 20 nM AF cyclic peptide Reagent A; read-out: IC50
Summary of the method: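 TR-FRET displacement: 0.5 nM biotinylated PCSK9 with 1.25 nM Strep-Eu and 20 nM AlexaFluor-tagged cyclic peptide (final) in 50 mM HEPES pH 7.4, 0.15 M NaCl, 5 mM CaCl2, 0.01% BSA, 0.01% P20, ≥2 h at room temperature. IC50 from sigmoidal fit, converted to Ki via peptide KD; falling Eu counts flagged false positives.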

T1 sequence (Q8NBP7 153-692): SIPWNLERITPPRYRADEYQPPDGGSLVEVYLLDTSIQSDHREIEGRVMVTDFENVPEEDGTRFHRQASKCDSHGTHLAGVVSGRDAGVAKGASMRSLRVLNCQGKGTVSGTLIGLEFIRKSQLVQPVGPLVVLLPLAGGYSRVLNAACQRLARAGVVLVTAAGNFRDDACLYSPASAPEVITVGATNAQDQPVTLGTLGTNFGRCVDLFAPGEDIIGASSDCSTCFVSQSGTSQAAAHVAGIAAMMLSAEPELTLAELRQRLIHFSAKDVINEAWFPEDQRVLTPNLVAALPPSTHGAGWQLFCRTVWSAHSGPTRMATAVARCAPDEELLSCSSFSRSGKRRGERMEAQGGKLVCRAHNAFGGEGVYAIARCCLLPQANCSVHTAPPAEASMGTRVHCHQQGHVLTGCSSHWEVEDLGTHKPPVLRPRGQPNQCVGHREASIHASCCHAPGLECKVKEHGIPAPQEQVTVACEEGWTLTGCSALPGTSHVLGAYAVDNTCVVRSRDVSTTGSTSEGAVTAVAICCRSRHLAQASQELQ

Row | Compound | IC50 (PCSK9 [1]) [nM] | IC50 (PCSK9 [2]) [nM]
1 | CCCCCCCCCCCCCCCC(=O)N[C@@H](CCC(=O)NCCOCCOCC(=O)NCCOCCOCC(=O)NCCCC[C@H](NC(C)=O)C(=O)NCCOCCOCC(=O)N[C@@H]1CSCc2cccc(c2)CSC[C@@H](C(N)=O)NC(=O)[C@]2(C)CCCN2C(=O)[C@H](Cc2ccc(O)cc2)NC(=O)[C@H]([C@@H](C)O)NC(=O)N2C[C@@H](F)C[C@H]2C(=O)[C@H](Cc2c[nH]c3ccc(F)cc23)NC(=O)[C@H](Cc2c[nH]c3ccc(F)cc23)NC(=O)[C@@H](C)NC(=O)[C@H](C)NC1=O)C(=O)O [Compound 135] | 0.1 to 100 | 0.11 to 100
2 | COc1ccc(C[C@@H]2NC(=O)[C@H]([C@@H](C)O)NC(=O)[C@@H]3CC[C@H](F)N3C(=O)[C@H](Cc3c[nH]c4ccc(F)cc34)NC(=O)[C@H](Cc3c[nH]c4ccc(F)cc34)NC(=O)[C@@H](C)NC(=O)c3ccc(cc3)-c3ccc(cc3)CNCc3ccc(cc3)C[C@@H](C(N)=O)NC(=O)[C@]3(C)CCCN3C2=O)cc1 [Compound 093] | 500 to 5000 | 1000 to 12100
3 | COc1ccc(C[C@@H]2NC(=O)[C@H]([C@@H](C)O)NC(=O)[C@@H]3C[C@H](F)CN3C(=O)[C@H](Cc3c[nH]c4ccc(F)cc34)NC(=O)[C@H](Cc3c[nH]c4ccc(F)cc34)NC(=O)[C@@H](C)NC(=O)[C@H](CCCCN)NC(=O)[C@@H](NC(=O)C(C)(C)F)CC(=O)NCCOc3ccc(cc3)C[C@@H](C(N)=O)NC(=O)[C@]3(C)CCCN3C2=O)cc1 [Compound 112] (X28-DK[dA][Trp(5-F)][Trp(5-F)][Pro(cis-4-F)]TY(Me)[αMeP][AEF]-NH2; lactam 1-10) | 100 to 500 | 0.11 to 100
4 | C[C@@]12CCCN1C(=O)[C@H](Cc1ccc(O)cc1)NC(=O)CN1C(=O)[C@@H](CCc3ccccc31)NC(=O)[C@H](Cc1c[nH]c3ccc(F)cc13)NC(=O)[C@H](Cc1c[nH]c3ccc(F)cc13)NC(=O)CNC(=O)[C@H](CCCCN)NC(=O)CCSCc1cccc(c1)CSC[C@@H](C(N)=O)NC2=O [Compound 109] | 100 to 500 | 0.11 to 100
5 | CCCCCCCCCCCCCCCC(=O)N[C@@H](CCC(=O)NCCOCCOCCOCCOCCOCCOCCOCCOCCOCCOCCOCCOCCC(=O)NCc1cccc(C[C@@H]2NC(=O)[C@@H](C)NC(=O)[C@H](CCCCN)NC(=O)CCSCc3cccc(c3)CSC[C@@H](C(N)=O)NC(=O)[C@]3(C)CCCN3C(=O)[C@H](Cc3ccc(O)cc3)NC(=O)[C@H](Cc3cnc[nH]3)NC(=O)[C@H](CC(=O)O)NC(=O)[C@H](Cc3c[nH]c4ccc(F)cc34)NC2=O)c1)C(=O)O [Compound 478] ([Mpa]K[dA][Phe(3-CH2NH2)]([PEG12-γGlu-Palmitoyl])[Trp(5-F)]DHY[αMeP]C-NH2; linker 1-10 via mXylylene) | 500 to 5000 | 21000 to 50000
6 | COc1ccc(C[C@@H]2NC(=O)[C@H]([C@@H](C)O)NC(=O)[C@@H]3C[C@H](F)CN3C(=O)[C@H](Cc3c[nH]c4ccc(F)cc34)NC(=O)[C@H](Cc3c[nH]c4ccc(F)cc34)NC(=O)[C@@H](C)NC(=O)[C@H](CCCCN)NC(=O)[C@@H](NC(C)=O)CC(=O)NCc3ccc(cc3)CCNC(=O)[C@]3(C)CCCN3C2=O)cc1 [Compound 095] (Ac-DK[dA][Trp(5-F)][Trp(5-F)][Pro(cis-4-F)]TY(Me)[αMeP]; linker 1-C via NHCH2C6H4(p)CH2CH2NH) | 500 to 5000 | 100 to 1000
7 | COc1ccc(C[C@@H]2NC(=O)[C@H](Cc3cnc[nH]3)NC(=O)[C@H](CC(=O)O)NC(=O)[C@H](Cc3c[nH]c4ccc(F)cc34)NC(=O)[C@H](Cc3c[nH]c4ccc(F)cc34)NC(=O)[C@@H](C)NC(=O)CCCC(=O)NCc3ccc(cc3)C[C@@H](C(N)=O)NC(=O)[C@]3(C)CCCN3C2=O)cc1 [Compound 417] ([dA][Trp(5-F)][Trp(5-F)]DHY(Me)[αMeP][Phe(4-CH2NH2)]-NH2; linker N-8 via Glutaryl) | 100 to 500 | 0.11 to 100
8 | COc1ccc(C[C@@H]2NC(=O)[C@H]([C@@H](C)O)NC(=O)[C@@H]3C[C@H](F)CN3C(=O)[C@H](Cc3c[nH]c4ccc(F)cc34)NC(=O)[C@H](Cc3c[nH]c4ccc(F)cc34)NC(=O)[C@@H](C)NC(=O)[C@H](CCCCN)NC(=O)[C@@H](NC(=O)C(C)(C)C)CC(=O)NCCOc3ccc(cc3)C[C@@H](C(N)=O)NC(=O)[C@]3(C)CCCN3C2=O)cc1 [Compound 119] (Piv-DK[dA][Trp(5-F)][Trp(5-F)][Pro(cis-4-F)]TY(Me)[αMeP][AEF]-NH2; lactam 1-10) | 500 to 5000 | 21000 to 50000
9 | NC(=O)[C@@H]1Cc2ccc(cc2)CNC(=O)CCCCCC(=O)NCC(=O)N[C@@H](Cc2c[nH]c3ccc(F)cc23)C(=O)N[C@@H](Cc2c[nH]c3ccc(F)cc23)C(=O)N[C@@H](CC(=O)O)C(=O)N[C@@H](Cc2cnc[nH]2)C(=O)N[C@@H](Cc2ccc(O)cc2)C(=O)N1 [Compound 455] (G[Trp(5-F)][Trp(5-F)]DHY[Phe(4-CH2NH2)]-NH2; linker N-7 via Heptanedioyl) | 500 to 5000 | 1000 to 12100
10 | CC(=O)N[C@@H]1CCC/C=C/CO[C@H]2C[C@@H](C(N)=O)N(C2)C(=O)[C@H](Cc2ccc(O)cc2)NC(=O)[C@H](Cc2cnc[nH]2)NC(=O)[C@H](CC(=O)O)NC(=O)[C@H](Cc2c[nH]c3ccc(F)cc23)NC(=O)[C@H](Cc2c[nH]c3ccc(F)cc23)NC(=O)CNC1=O [Compound 420] | 100 to 500 | 100 to 1000
11 | COc1ccc(C[C@@H]2NC(=O)[C@H](Cc3cnc[nH]3)NC(=O)[C@H](CC(=O)O)NC(=O)[C@H](Cc3c[nH]c4ccc(F)cc34)NC(=O)[C@H](Cc3c[nH]c4ccc(F)cc34)NC(=O)[C@@H](C)NC(=O)CCCCCC(=O)NCc3ccc(cc3)C[C@@H](C(N)=O)NC(=O)[C@]3(C)CCCN3C2=O)cc1 [Compound 440] ([dA][Trp(5-F)][Trp(5-F)]DHY(Me)[αMeP][Phe(4-CH2NH2)]-NH2; linker N-8 via Heptanedioyl) | 100 to 500 | 100 to 1000
12 | CCCCCCCCCCCCCCCC(=O)N[C@@H](CCC(=O)NCCOCCOCCC(=O)NCCOCCOCC(=O)NCCCC[C@H](NC(=O)COCCOCCOCCNC(=O)[C@@H]1CSCc2cccc(c2)CSCCC(=O)N[C@@H](CCCCN)C(=O)N[C@H](C)C(=O)N[C@@H](Cc2c[nH]c3ccc(F)cc23)C(=O)N[C@@H](Cc2c[nH]c3ccc(F)cc23)C(=O)N[C@@H](CC(=O)O)C(=O)N[C@@H](Cc2cnc[nH]2)C(=O)N[C@@H](Cc2ccc(O)cc2)C(=O)N2CCC[C@@]2(C)C(=O)N1)C(N)=O)C(=O)O [Compound 473] ([Mpa]K[dA][Trp(5-F)][Trp(5-F)]DHY[αMeP]C[AEEEA]K([AEEA-PEG2-γGlu-Palmitoyl])-NH2; linker 1-10 via mXylylene) | 500 to 5000 | 21000 to 50000
13 | C[C@@]12CCCN1C(=O)[C@H](Cc1ccc(O)cc1)NC(=O)[C@H](Cc1c[nH]cn1)NC(=O)[C@H](CC(=O)O)NC(=O)[C@H](Cc1c[nH]c3ccc(F)cc13)NC(=O)[C@H](Cc1c[nH]c3ccc(F)cc13)NC(=O)CNC(=O)[C@@H]1CCC(=O)N1CCCSCc1cccc(c1)CSC[C@@H](C(N)=O)NC2=O [Compound 482] (G[Trp(5-F)][Trp(5-F)]DHY[αMeP]C-NH2; linker N-8 via X1) | 100 to 500 | 0.11 to 100
14 | NC(=O)[C@@H]1Cc2cccc(c2)CNC(=O)CCCCC(=O)NCC(=O)N[C@@H](Cc2c[nH]c3ccc(F)cc23)C(=O)N[C@@H](Cc2c[nH]c3ccc(F)cc23)C(=O)N[C@@H](CC(=O)O)C(=O)N[C@@H](Cc2cnc[nH]2)C(=O)N[C@@H](Cc2ccc(O)cc2)C(=O)N1 [Compound 457] (G[Trp(5-F)][Trp(5-F)]DHY[Phe(3-CH2NH2)]-NH2; linker N-7 via Adipoyl) | 500 to 5000 | 21000 to 50000
15 | C[C@@]12CCCN1C(=O)[C@H](Cc1ccc(O)cc1)NC(=O)N[C@H]1CCCc3ccc(cc31)C(=O)[C@H](Cc1c[nH]c3ccc(F)cc13)NC(=O)[C@H](Cc1c[nH]c3ccc(F)cc13)NC(=O)CNC(=O)[C@H](CCCCN)NC(=O)CCSCc1cccc(c1)CSC[C@@H](C(N)=O)NC2=O [Compound 139] | 500 to 5000 | 1000 to 12100
16 | CCCCCCCCCCCCCCCC(=O)N[C@@H](CCC(=O)NCCOCCOCC(=O)NCCOCCOCC(=O)NCc1ccc(C[C@@H]2NC(=O)[C@@H](C)NC(=O)[C@H](CCCCN)NC(=O)CCSCc3cccc(c3)CSC[C@@H](C(N)=O)NC(=O)[C@]3(C)CCCN3C(=O)[C@H](Cc3ccc(O)cc3)NC(=O)[C@H](Cc3cnc[nH]3)NC(=O)[C@H](CC(=O)O)NC(=O)[C@H](Cc3c[nH]c4ccc(F)cc34)NC2=O)cc1)C(=O)O [Compound 453] ([Mpa]K[dA][Phe(4-CH2NH2)]([AEEA-AEEA-γGlu-Palmitoyl])[Trp(5-F)]DHY[αMeP]C-NH2; linker 1-10 via mXylylene) | 0.1 to 100 | 0.11 to 100
17 | NC(=O)[C@@H]1Cc2ccc(cc2)CNC(=O)CCCC(=O)NCC(=O)N[C@@H](Cc2c[nH]c3ccc(F)cc23)C(=O)N[C@@H](Cc2c[nH]c3ccc(F)cc23)C(=O)N[C@@H](CC(=O)O)C(=O)N[C@@H](Cc2cnc[nH]2)C(=O)N[C@@H](Cc2ccc(O)cc2)C(=O)N1 [Compound 437] (G[Trp(5-F)][Trp(5-F)]DHY[Phe(4-CH2NH2)]-NH2; linker N-7 via Glutaryl) | 100 to 500 | 0.11 to 100
